BindingDB's records for doi:10.1016/S0960-894X(97)00246-1 (1997)

Experiments:
[1] = target: Group IIA secretory phospholipase A2 (Homo sapiens); test: Compound was measured for the inhibitory activity against Secretory phospholipase A 2 (s-PLA2)
[2] = target: Group IIA secretory phospholipase A2 (Homo sapiens); test: Compound was measured for the inhibitory activity against secretory-phospholipase A2 (s-PLA2)

SMILES	IC50 [1]	IC50 [2]
CCCCCCCCCCCCCCCCCCOP(=O)(O)c1cccc2ccc(C(=O)O)cc12 [8-(Hydroxy-octadecyloxy-phosphoryl)-naphthalene-2-carboxylic acid]		3.9 µM
CCCCCCCCOP(=O)(O)c1cccc2ccc(C(=O)O)cc12 [8-(Hydroxy-octyloxy-phosphoryl)-naphthalene-2-carboxylic acid]	> 200 µM	

More lines, now with the values ahead:

IC50 [1]	IC50 [2]	SMILES
1.7 µM		CCCCCCCOc1ccc(C(=O)O)cc1CC(=O)C(F)(F)F [4-Heptyloxy-3-(3,3,3-trifluoro-2-oxo-propyl)-benzoic acid]
2.4 µM		O=C(O)c1ccc2cccc(C(=O)C(F)(F)F)c2c1 [8-(2,2,2-Trifluoro-acetyl)-naphthalene-2-carboxylic acid]
4.5 µM		CCCCCCCCCCOP(=O)(O)c1cc(OCc2ccccc2)ccc1/C=C/C(=O)O [(E)-3-[4-Benzyloxy-2-(decyloxy-hydroxy-phosphoryl)-phenyl]-acrylic acid]
